In a melting point compilation (Tetko et al.; mined from patent text by program, amines drawn as free bases though some values may be those of a salt) one finds melting point data, which are given here for 86 molecules.

One may read the melting point as the temperature of the solid-liquid transition.

Bounds are passed on as bounds.

In turn, `COc1ccccc1OCC1SCCN1C(=O)CS` (stereo unspecified) came in with a melting point of 86 to 87 °C.

With `COc1cc(Nc2cc(C(=O)O)c(C(=O)O)cc2Nc2ccccc2)cc(OC)c1OC`, the melting point is 145 to 146 °C. Turning to `O=C(Cc1c(-c2ccccc2)c2cc(CSc3ccccn3)c(Cl)cc2oc1=O)Nc1ccc(F)cc1C(F)(F)F`, the melting point lay within 195 to 196 °C. Regarding `CCCc1c(OCC2COc3cc(CC(=O)O)ccc3O2)ccc(C(C)=O)c1O` (stereo unspecified), the melting point was in the range of 143 to 146 °C. Next, `CCOC(=O)c1cc2c3ccccc3n(CCCc3ccccc3)c2cn1`: 140 to 142 °C; `CC(Oc1ccc(-c2ccc(Cl)cc2)cc1)(C(=O)O)C(F)(F)F` (stereo unspecified): 198 to 199 °C. For `O=S(=O)(c1ccccc1)C(F)(F)C(O)c1ccc(Cl)cc1` (stereo unspecified), the melting point was in the range of 100 to 102 °C. The same measure for `Cc1cc(N=C2NCCN2)cc(NS(C)(=O)=O)c1C`: 254 to 255 °C; for `O=C(OCC1OC(n2cc(I)c(=O)[nH]c2=O)C(F)C1OC(=O)c1ccccc1)c1ccccc1` (stereo unspecified): 197 °C.

For `C#CCc1c(C)nc2c(NCc3c(C)cccc3NC(=O)CO)cccn12`, the melting point is 195 to 196 °C.

Turning to `COc1cc(OC)cc(C(O)C(=O)c2ccccc2)c1` (stereo unspecified), the melting point was 98 to 104 °C.

`CN1C(=O)N(c2cc(Cl)cc(Cl)c2)C(=O)[C@]12CN(CC(=O)O)C[C@H]2c1ccc(C#N)cc1` (relative stereo) displayed a melting point of 220 °C.

As for `Cc1ccccc1-c1cc(F)c2c(c1)CC(CN)O2` (stereo unspecified), the melting point is more than 250 °C. The same measure for `OC(C(=Cc1cccnc1)c1ccc(F)cc1)c1ccccc1Cl` (stereo unspecified): 82 to 83 °C; for `Fc1cc(CC2(Cc3ccnc(F)c3)c3ccccc3-c3ncccc32)ccn1`: 137 to 140 °C; for `C#Cc1ccc2c(c1)C(c1ccccc1F)=NC(C)c1c(C(=O)OCC)ncn1-2` (stereo unspecified): 212 to 214 °C.

As for `CS(=O)(=O)OCCN1c2ccccc2Oc2ccccc21`, the melting point is 81 to 83 °C. Next, `COC(=O)C1=C(C)NC(C)=C(C(=O)OC)C1c1ccccc1-c1ccsc1`: 164 to 166 °C; `NS(=O)(=O)c1cc2c(=O)[nH]ccc2s1`: 300 to 301 °C.

For the molecule `CC(=O)CN(C(=O)c1ccco1)c1c(C)cccc1C`, the melting point was in the range of 90 to 91 °C.

As for `CC(=O)c1ccc(S(=O)(=O)NN2CCCCC2)cc1`, the melting point fell in the range of 137 to 139 °C. The same measure for `CN(C)C1(Cc2ccccc2)CC=C(c2[nH]c3ccccc3c2CCc2ccncc2)CC1` (stereo unspecified): 154 to 157 °C; for `CC(=O)Oc1ccc(Cn2ccnc2SC(C)=O)cc1`: 99 to 101 °C. On to `CC(C)(C)OC(=O)c1cn(-c2cccnc2)cn1`, for which the melting point fell in the range of 81 to 82 °C.

Regarding `CCCCCCCNC(=O)Nc1ccc(OC)cc1NC(=O)c1cc(C(C)(C)C)c(O)c(C(C)(C)C)c1`, the melting point lay within 150 to 151 °C. Next, `COCN1C(C)=C(C(=O)OCOC(=O)C(C)(C)C)C(c2cccc(Cl)c2Cl)C(C(=O)OCOC(=O)C(C)(C)C)=C1C`: 103 to 104 °C. The same measure for `CSC1C(=O)Nc2ccc(C3=NNC(=O)SC3C)cc21` (stereo unspecified): 159 °C; for `CC#CC(=O)N[C@H]1CC[C@H](CCN2CCN(c3nccc4c3OCC4)CC2)CC1`: 176 °C.

`C=CC[C@H]1C[C@@](OS(C)(=O)=O)(C(=O)OC)C[C@@H](OC(=O)c2ccccc2)[C@@H]1O` showed a melting point of 46 to 47 °C. `CCOC(=O)C1=C(C(OCC)OCC)NC(C)=C(C(=O)OCc2ccccc2)C1c1ccccc1[N+](=O)[O-]` (stereo unspecified) yielded a melting point of 103 to 104 °C. The same measure for `NS(=O)(=O)c1ccc(N2C(=O)CN(c3ccccc3)C2=O)c(Cl)c1`: 241 to 243 °C; for `CCCCCCCCCCNC(=O)C=Cc1cccc(N2CC(C(=O)OCCN(CC)CC)CC2=O)c1` (stereo unspecified): 78 to 80 °C; for `COC(=O)Cc1cc2c(c([N+](=O)[O-])c1)N(C(C)=O)CC2`: 136 to 137 °C. For `CO/C=C(/C(=O)OC)c1ccccc1Oc1cc(Cl)ncn1`, the melting point was 94 to 95 °C. Molecule `Nc1nc(Oc2ccccc2)c2nc[nH]c2n1` yielded a melting point of 228 °C.

`CC(C)CCc1ccc(C#N)c(=O)[nH]1` had a melting point of 110 to 112 °C. `CC(C)c1cc2c(c(O)c1O)C1(C(=O)O)CCCC(C)(C)C1CC2` (stereo unspecified) gave a melting point of 193 to 199 °C. The molecule `COc1cc(=O)c2c([nH]c1=O)CC(Cl)C(Cl)C2` (stereo unspecified) came in with a melting point of 229 to 230 °C. With `COc1ccccc1OC1CCN(CCCNC(=O)c2cccc3c(=O)c(C)c(-c4ccccc4)oc23)CC1`, the melting point was in the range of 154 to 156 °C. Next, `OC1C(CF)OC(n2cnc3c(NN4CCCCC4)nc(Cl)nc32)C1O` (stereo unspecified): 199 to 201 °C; `c1cncc(CNC2=Nc3ccccc3Nc3ncccc32)c1`: 192 to 194 °C. The same measure for `CCCCCCCCCCc1ccc2cc(SC)c(OS(=O)(=O)C(F)(F)F)cc2c1`: 149 to 150 °C.

The molecule `CC(=O)C1(C)CCc2c(C)c(O)c(C)c(C)c2O1` (stereo unspecified) gave a melting point of 97 to 98 °C.

Consider `CCCCC(=O)OCc1cnc(C)c(O)c1`, for which the melting point lay in the range of 114 to 115 °C. `CCCCCNS(=O)(=O)NC(=O)/C=C/c1c(C)nn(C)c1-n1ccc2cc(Cl)ccc21` registered a melting point of 184 °C. The molecule `CCc1nc2cc(S(C)(=O)=O)c(Cl)cc2n1-c1ccc(CCOC(=O)NS(=O)(=O)c2ccc(C)cc2)cc1` showed a melting point of 105 to 110 °C. Consider `COc1ccc(-c2nc(C(N)=O)cn2-c2ccc(OC)cc2)cc1`, for which the melting point lay within 167 to 169 °C. The molecule `Cc1cn(C2CC(O)C(C(O)I)O2)c(=O)[nH]c1=O` (stereo unspecified) showed a melting point of 172 to 175 °C. Turning to `CCCCc1c(Cc2ccc(-c3ccccc3-c3nnn[nH]3)cc2)c(C(=O)O)nn1CCCC`, the melting point came out at 108 °C.

Molecule `CC(C)n1c(=O)on(C(=O)n2oc(=O)n(C(C)C)c2=O)c1=O` gave a melting point of 150 °C. For the molecule `CCCc1nc2c(N)nc(C)c(C)c2n1CCCC(C)=O`, the melting point fell in the range of 148 to 150 °C.

`CC(=O)CSc1ccc(S(C)(=O)=O)cc1` returned a melting point of 95 to 97 °C. Next, `COC(=O)C1=C(C)NC(C)=C(P2(=O)OCCCO2)C1c1ccccc1[N+](=O)[O-]` (stereo unspecified): 249 to 251 °C. Next, `COC(=O)NC1CCN(c2ncc3ncnc(Nc4ccc(F)c(Cl)c4)c3n2)CC1`: 195 to 197 °C; `COc1ccc(CNc2c(Cl)cnn(C)c2=O)cc1`: 94 to 96 °C; `C/C(=C\c1ccc(C(=O)Nc2nnn[nH]2)cc1)c1ccc2c(c1)C(C)(C)CCO2`: more than 250 °C.

`O=C(Nc1ccc(N2C[C@H]3CN(C(=O)OCc4ccccc4)C[C@H]3C2)cc1)OCc1ccccc1` gave a melting point of 145 to 146 °C. In turn, `COc1ccc(F)cc1N1CCN(CCCN2Cc3cc(Cl)c(S(N)(=O)=O)cc3C2=O)CC1` showed a melting point of 158 to 163 °C. `CS(=O)(=O)c1ccc(C2=C(c3ccc(Cl)cc3)C(=O)N(C3CCCCC3)C2)cc1` had a melting point of 142 to 144 °C. The same measure for `Oc1ccc(-c2nnsc2-c2ccc(O)cc2)cc1`: 221 °C; for `Cn1cc(C2=C(c3c4n(c5ccccc35)CCC(CCN=[N+]=[N-])C4)C(=O)NC2=O)c2ccccc21` (stereo unspecified): 262 to 264 °C. Next, `COc1ccccc1-c1ccc2cnc(Nc3ccc4c(c3)NC(=O)CC4)nn12`: 310 to 313 °C; `N#Cc1cc(NC(=O)c2cc3ccccc3s2)ccc1OC1CCN(Cc2ccccc2)CC1`: 206 °C.

`COC1C(OC(=O)c2ccc([N+](=O)[O-])cc2)C=C(C)C(=O)CC1(C)C` (stereo unspecified) returned a melting point of 136 to 138 °C. As for `CC(=O)C=C(C)Nc1ccccc1C#N`, the melting point amounted to 100 °C.

`CC1(C)c2ccccc2-c2[nH]c3ccccc3c21` displayed a melting point of 160 °C. `CCOC(=O)c1cnn(-c2ccc(OC)c(C#N)c2)c1N` displayed a melting point of 195 to 196 °C. Next, `COc1ccc(C=Cc2cc(OC)c3c(c2)OCO3)cc1O`: 145 to 150 °C.

For `CN(CCc1c[nH]c2ccc(CN)cc12)Cc1ccccc1`, the melting point was 84 to 85 °C.

Take `N#CCCNC(=O)C1CC(CF)(CF)Oc2ccc([N+](=O)[O-])cc21` (stereo unspecified): the melting point fell in the range of 137 to 138 °C. In turn, `CC(C)Oc1ccc2nc3ccc(C#N)cn3c(=O)c2c1` displayed a melting point of 234 to 236 °C. `CCCCc1nnc(SCc2ccc(Cl)cc2)n1Cc1ccc(OC(C(=O)O)c2ccccc2Cl)cc1` (stereo unspecified) registered a melting point of 100 to 102 °C. The same measure for `O=C(O)C[C@H]1CC[C@H](Cn2nc(-c3cccs3)c(Cc3cc4c(cc3Cl)OCO4)c2C(=O)O)CC1`: 240 °C; for `CC(C)(C)c1ccc(-c2nn(-c3ccc(F)cc3F)c3c2C2CCC3C2)cc1` (stereo unspecified): 130 to 132 °C.

In turn, `Cc1cc(-c2ccc(Cl)cc2)nc(-c2ccnc(-c3ccc(S(N)(=O)=O)s3)c2)n1` returned a melting point of 232 °C. In turn, `CSc1nn2c(Cl)cc(C)nc2c1S(=O)(=O)c1ccccc1` had a melting point of 163 to 165 °C. Next, `O=C(O)c1ccc(S(=O)(=O)Nc2ccc(F)c(C(F)(F)F)c2)cc1`: 238 to 241 °C; `CC(=O)Nc1nc2ccc(S(=O)(=O)n3c(CCCC(=O)O)cc4cc(C(F)(F)F)ccc43)cc2s1`: more than 250 °C.

As to `COc1c(F)c(F)cc2c(O)c(C(=O)NCc3ccc(Cl)cc3)cnc12`, the melting point fell in the range of 248 to 251 °C.

In the case of `COC(=O)Cc1ccc(C(=O)c2ccc(C)cc2)n1C`, the melting point lay in the range of 117 to 118 °C. Molecule `Cn1c(=O)c2c(Cl)cccc2n2cnc(C(=O)n3ccnc3)c12` returned a melting point of 242 to 243 °C. The molecule `CNC(=C[N+](=O)[O-])NCCSCc1cc(CN(C)C)ccn1` showed a melting point of 113 to 115 °C. The same measure for `CSc1ccc(C(=O)c2c(C)cc3n2CCC3C(=O)OC(C)c2ccccc2)n1C` (stereo unspecified): 122 to 123 °C; for `CCc1c(CC(=O)NCCCCCC(=O)NCCc2ccc(NS(C)(=O)=O)cc2)ccc(OC)c1OC`: 110 to 112 °C; for `O=S(=O)(Cl)Oc1cccc2cnccc12`: 152 to 155 °C. The same measure for `CCN(CC)CCNC(=O)c1c2ccccc2nc2ccc(I)cc12`: 83 to 85 °C.
